# Reference: ChEMBL document CHEMBL1130706, “Synthesis and structure-activity relationships of adenosine analogs as inhibitors of trypanosomal glyceraldehyde-3-phosphate dehydrogenase. Modifications at positions 5' and 8” (Bioorg Med Chem Lett, 1998)
# Test system: CC(C)=CCNc1ncnc2c1nc(-c1cccs1)n2C1O[C@H](CO)[C@@H](O)[C@H]1O
# Settings: not given
# Sequence of Glyceraldehyde-3-phosphate dehydrogenase (Homo sapiens), P04406 (P04406 whole entry): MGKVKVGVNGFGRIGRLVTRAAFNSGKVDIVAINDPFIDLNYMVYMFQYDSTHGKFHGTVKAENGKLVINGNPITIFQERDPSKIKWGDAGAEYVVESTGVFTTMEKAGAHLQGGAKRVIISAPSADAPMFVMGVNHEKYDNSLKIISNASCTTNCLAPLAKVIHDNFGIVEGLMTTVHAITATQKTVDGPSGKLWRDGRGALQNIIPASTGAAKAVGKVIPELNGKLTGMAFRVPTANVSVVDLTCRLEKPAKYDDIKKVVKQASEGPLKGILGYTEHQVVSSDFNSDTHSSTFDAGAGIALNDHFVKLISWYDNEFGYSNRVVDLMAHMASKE
row,Compound,Km [µM]
1,"Glyceraldehyde-3-phosphate dehydrogenase (Homo sapiens), P04406",40

# Test system: Leishmania mexicana
# Settings: not given
row,Km [µM],Compound
1,400,CC(C)=CCNc1ncnc2c1nc(-c1cccs1)n2C1O[C@H](CO)[C@@H](O)[C@H]1O (some centres undefined)

# Test system: Leishmania mexicana
# Test: Inhibition of Leishmania mexicana GAPDH(glyceraldehyde-3-phosphate dehydrogenase)
# Parameters: concentration or dose not given beside the values
# Settings: concentration not given here
row,Compound,inhibition [%]
1,Nc1ncnc2c1ncn2[C@@H]1O[C@H](COC(=O)c2ccccc2)[C@@H](O)[C@H]1O,67
2,Nc1ncnc2c1nc(NCc1ccccc1)n2[C@@H]1O[C@H](CO)[C@@H](O)[C@H]1O,100
3,CN(C)c1nc2c(N)ncnc2n1C1O[C@H](CO)[C@@H](O)[C@H]1O (some centres undefined),75
4,O=C(Cc1ccccc1)NC[C@H]1OC(n2cnc3c(NCc4ccccc4)ncnc32)[C@H](O)[C@@H]1O (some centres undefined),77
5,Nc1ncnc2c1ncn2C1O[C@H](COC(=O)c2ccc3ccccc3c2)[C@@H](O)[C@H]1O (some centres undefined),100
6,OC[C@H]1OC(n2c(-c3cccs3)nc3c(NCc4ccccc4)ncnc32)[C@H](O)[C@@H]1O (some centres undefined),100
7,COc1cccc(C(=O)N[C@@H]2[C@H](O)[C@@H](COC(=O)c3ccccc3C(=O)O)O[C@H]2n2cnc3c(NCc4ccccc4)ncnc32)c1,100
8,O=C(NC[C@H]1OC(n2cnc3c(NCc4ccccc4)ncnc32)[C@H](O)[C@@H]1O)c1cc(O)cc(O)c1 (some centres undefined),100

# Further lines, results first:
row,inhibition [%],Compound
1,100,Nc1ncnc2c1nc(N1CCCCC1)n2[C@@H]1O[C@H](CO)[C@@H](O)[C@H]1O
2,84,CC(C)=CCNc1ncnc2c1ncn2[C@@H]1O[C@H](CO)[C@@H](O)[C@H]1O
3,77,O=C(CC1CCCCC1)NC[C@H]1OC(n2cnc3c(NCc4ccccc4)ncnc32)[C@H](O)[C@@H]1O (some centres undefined)
4,100,Cc1ccccc1CNc1ncnc2c1nc(-c1cccs1)n2C1O[C@H](CO)[C@@H](O)[C@H]1O (some centres undefined)
5,80,Nc1ncnc2c1nc(NCCO)n2C1O[C@H](CO)[C@@H](O)[C@H]1O (some centres undefined)
6,74,NC(=O)CCC(=O)NC[C@H]1OC(n2cnc3c(NCc4ccccc4)ncnc32)[C@H](O)[C@@H]1O (some centres undefined)
7,100,Nc1ncnc2c1nc(N1CCCC1)n2C1O[C@H](CO)[C@@H](O)[C@H]1O (some centres undefined)
8,79,O=C(O)CCCC(=O)NC[C@H]1OC(n2cnc3c(NCc4ccccc4)ncnc32)[C@H](O)[C@@H]1O (some centres undefined)
9,100,Nc1ncnc2c1ncn2C1O[C@H](COC(=O)CCC(=O)O)[C@@H](O)[C@H]1O (some centres undefined)
